Measurements published in patent publication US8404859B2, “Thiazole and thiophene compounds” (Hoffmann-La Roche Inc., priority 2011, dated 2013).
pIC50: −log10 of the molar value.

Legend:
[1] = target: Mac-1/ICAM-1 (Homo sapiens, UniProt P05107+P11215); experiment: Mac-1/ICAM-1 ELISA; settings: Mac-1 receptor coated plates, 5dICAM-Fc binding
Procedure: (§1) sLFA-1/ICAM-1 ELISA and Mac-1/ICAM-1 ELISA
(§2) Plates were coated with either 50 μl/well of 2.0 ug/ml solution of sLFA-1 or Mac-1 receptor in divalent cation buffer (1 mM MnCI2, 0.14M NaCl, 20 mM HEPES pH 7.2) at 4° C. overnight. Two hundred fifty μl of blocking buffer (1% BSA in divalent cation buffer) was added to each well 1 hour at 37° C. Plates were washed 3 times with wash buffer (TBS/0.05% Tween-20/1 mM MnCl2). The compound to be tested was solubilized in DMSO. A series of 1:3 dilutions were performed to achieve a concentration range of 0.45 nM-3 uM. Fifty μl of binding buffer (0.5% BSA in divalent cation buffer)/1% DMSO and 50 μl of the solutions to be tested were added to the appropriate wells and incubated for 1 hour. Fifty μl of 5dICAM-Fc (27 ng/ml) was added to the appropriate wells and 50 μl binding buffer was added to non-specific binding wells and incubated for 2 hours and washed. One hundred μl of 1:4000 HRP-goat anti-huIgG was added to each well and incubated for 1 hour and washed. One hundred μl of 1:1 TMB solution was added to each well and developed for 20 min at room temperature. Color development was stopped by adding 100 μl H3PO4 to each well. Absorbance was measured at 450 nm.

[2] = target: sLFA-1/ICAM-1 (Homo sapiens, UniProt P05107+P20701, DEL701-769); experiment: sLFA-1/ICAM-1 ELISA; settings: sLFA-1 coated plates, 5dICAM-Fc binding, read-out: LFA/ICAM (IC50)
Procedure: as §1, §2

Mac-1/ICAM-1, sequence (P05107 23-769, other chains not shown): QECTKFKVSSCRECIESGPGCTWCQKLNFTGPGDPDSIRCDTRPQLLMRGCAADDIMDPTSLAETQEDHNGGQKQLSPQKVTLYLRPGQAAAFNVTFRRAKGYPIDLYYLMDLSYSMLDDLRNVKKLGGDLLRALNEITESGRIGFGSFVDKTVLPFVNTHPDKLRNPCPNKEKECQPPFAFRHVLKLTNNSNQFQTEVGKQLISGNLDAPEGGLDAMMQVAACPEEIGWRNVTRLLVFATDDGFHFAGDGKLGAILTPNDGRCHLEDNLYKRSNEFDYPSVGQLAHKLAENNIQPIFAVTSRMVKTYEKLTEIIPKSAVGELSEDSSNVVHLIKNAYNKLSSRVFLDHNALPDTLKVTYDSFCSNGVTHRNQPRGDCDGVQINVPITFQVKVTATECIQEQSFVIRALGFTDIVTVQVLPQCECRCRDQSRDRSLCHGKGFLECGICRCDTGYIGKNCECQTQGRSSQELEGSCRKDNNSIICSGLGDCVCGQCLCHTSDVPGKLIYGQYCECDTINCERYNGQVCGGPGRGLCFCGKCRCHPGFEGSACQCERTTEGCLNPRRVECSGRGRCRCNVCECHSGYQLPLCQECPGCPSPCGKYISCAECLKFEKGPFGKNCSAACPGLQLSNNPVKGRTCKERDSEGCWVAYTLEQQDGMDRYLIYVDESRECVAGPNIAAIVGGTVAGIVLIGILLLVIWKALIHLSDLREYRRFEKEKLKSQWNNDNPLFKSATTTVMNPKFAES
sLFA-1/ICAM-1, sequence (P20701 26-1090 limits assumed, stated change not applied): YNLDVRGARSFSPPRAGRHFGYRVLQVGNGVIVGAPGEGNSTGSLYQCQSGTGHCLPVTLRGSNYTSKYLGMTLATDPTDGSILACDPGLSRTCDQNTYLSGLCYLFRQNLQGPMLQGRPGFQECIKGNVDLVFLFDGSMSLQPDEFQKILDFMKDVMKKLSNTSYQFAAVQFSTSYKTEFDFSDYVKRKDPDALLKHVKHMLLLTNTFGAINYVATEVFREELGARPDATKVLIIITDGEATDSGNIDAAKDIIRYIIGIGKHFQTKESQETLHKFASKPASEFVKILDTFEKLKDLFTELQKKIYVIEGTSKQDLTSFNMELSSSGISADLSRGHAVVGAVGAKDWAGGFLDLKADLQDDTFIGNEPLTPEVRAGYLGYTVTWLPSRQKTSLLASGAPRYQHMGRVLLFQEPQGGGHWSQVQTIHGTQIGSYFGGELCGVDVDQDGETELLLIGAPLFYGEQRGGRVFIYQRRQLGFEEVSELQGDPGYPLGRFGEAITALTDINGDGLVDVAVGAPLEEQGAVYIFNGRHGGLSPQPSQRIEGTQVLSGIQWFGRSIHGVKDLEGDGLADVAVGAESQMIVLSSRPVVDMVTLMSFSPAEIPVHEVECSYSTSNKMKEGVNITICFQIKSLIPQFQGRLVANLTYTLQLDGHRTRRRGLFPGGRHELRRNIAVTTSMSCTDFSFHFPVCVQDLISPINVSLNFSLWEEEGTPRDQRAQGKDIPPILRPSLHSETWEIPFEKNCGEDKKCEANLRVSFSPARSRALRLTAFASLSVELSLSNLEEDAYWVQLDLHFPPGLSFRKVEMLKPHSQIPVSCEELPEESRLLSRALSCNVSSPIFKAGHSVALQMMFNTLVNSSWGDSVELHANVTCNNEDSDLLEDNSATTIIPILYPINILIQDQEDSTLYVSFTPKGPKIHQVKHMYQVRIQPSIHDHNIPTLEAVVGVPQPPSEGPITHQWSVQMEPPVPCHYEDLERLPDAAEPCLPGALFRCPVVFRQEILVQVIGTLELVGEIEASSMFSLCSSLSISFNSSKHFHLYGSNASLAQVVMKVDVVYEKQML
sLFA-1/ICAM-1, sequence (P05107 23-700 limits assumed, stated change not applied): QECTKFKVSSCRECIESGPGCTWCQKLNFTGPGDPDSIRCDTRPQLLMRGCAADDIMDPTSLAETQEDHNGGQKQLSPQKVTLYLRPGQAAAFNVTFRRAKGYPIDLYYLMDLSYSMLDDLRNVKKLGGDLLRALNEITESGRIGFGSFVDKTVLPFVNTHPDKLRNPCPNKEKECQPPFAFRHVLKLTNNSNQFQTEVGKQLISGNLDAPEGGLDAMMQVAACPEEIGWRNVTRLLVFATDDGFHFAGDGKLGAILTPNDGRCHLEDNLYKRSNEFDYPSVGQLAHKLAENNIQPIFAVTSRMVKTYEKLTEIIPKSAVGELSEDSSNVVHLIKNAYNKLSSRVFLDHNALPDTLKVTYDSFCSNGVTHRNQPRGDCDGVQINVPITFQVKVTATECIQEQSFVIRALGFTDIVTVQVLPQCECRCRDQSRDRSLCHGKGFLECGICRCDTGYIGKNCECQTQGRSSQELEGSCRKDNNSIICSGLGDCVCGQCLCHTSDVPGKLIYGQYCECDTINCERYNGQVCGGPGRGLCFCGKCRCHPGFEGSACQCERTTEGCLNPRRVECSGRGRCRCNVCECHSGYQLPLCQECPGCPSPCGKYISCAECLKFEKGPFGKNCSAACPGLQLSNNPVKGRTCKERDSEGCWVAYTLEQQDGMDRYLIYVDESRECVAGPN

SMILES | pIC50 [1] | pIC50 [2]
O=C1Cc2c(CNC(=O)c3cc(C(F)(F)F)c(C(=O)N[C@@H](CNC(=O)c4cccs4)C(=O)O)s3)cccc2N1 [Example 51, (S)-2-({5-[(2-oxo-2,3-dihydro-1H-indol-4-ylmethyl)-carbamoyl]-3-trifluoromethyl-thiophene-2-carbonyl}-amino)-3-[(thiophene-2-carbonyl)-amino]-propionic acid] | < 5.52 | 6.79
O=C(NC[C@H](NC(=O)c1sc(C(=O)NCc2cccc(O)c2)cc1C(F)(F)F)C(=O)O)c1cccs1 [Example 52, (S)-2-{[5-(3-Hydroxy-benzylcarbamoyl)-3-trifluoromethyl-thiophene-2-carbonyl]-amino}-3-[(thiophene-2-carbonyl)-amino]-propionic acid] | 6.94 | 7.51
O=C(NC[C@H](NC(=O)c1sc(C(=O)NCc2cccc(O)c2)cc1Cl)C(=O)O)c1cccs1 [Example 54, (S)-2-{[3-Chloro-5-(3-hydroxy-benzylcarbamoyl)-thiophene-2-carbonyl]-amino}-3-[(thiophene-2-carbonyl)-amino]-propionic acid] | 7.21 | 8.15
O=C(NC[C@H](NC(=O)c1sc(C(=O)NCc2cccc3[nH]ncc23)cc1Cl)C(=O)O)c1cccs1 [Example 56, (S)-2-({3-Chloro-5-[(1H-indazol-4-ylmethyl)-carbamoyl]-thiophene-2-carbonyl}-amino)-3-[(thiophene-2-carbonyl)-amino]-propionic acid] | 7.70 | 7.54
O=C(NC[C@H](NC(=O)c1sc(C(=O)NCc2cccc3[nH]ncc23)cc1C(F)(F)F)C(=O)O)c1cccs1 [Example 58, (S)-2-({5-[(1H-Indazol-4-ylmethyl)-carbamoyl]-3-trifluoromethyl-thiophene-2-carbonyl}-amino)-3-[(thiophene-2-carbonyl)-amino]-propionic acid] | 7.26 | 7.39
CC(C)c1cc(C(=O)NCc2cccc(O)c2)sc1C(=O)N[C@@H](CNC(=O)c1cccs1)C(=O)O [Example 59, (S)-2-{[5-(3-Hydroxy-benzylcarbamoyl)-3-isopropyl-thiophene-2-carbonyl]-amino}-3-[(thiophene-2-carbonyl)-amino]-propionic acid] | 7.34 | 7.54
CC(C)c1cc(C(=O)NCc2cccc3[nH]ncc23)sc1C(=O)N[C@@H](CNC(=O)c1cccs1)C(=O)O [Example 60, (S)-2-([5-[(1H-Indazol-4-ylmethyl)-carbamoyl]-3-isopropyl-thiophene-2-carbonyl]-amino)-3-[(thiophene-2-carbonyl)-amino]-propionic acid] | 7.77 | 7.31
CCc1cc(C(=O)NCc2cccc(O)c2)sc1C(=O)N[C@@H](CNC(=O)c1cccs1)C(=O)O [Example 61, (S)-2-{[3-Ethyl-5-(3-hydroxy-benzylcarbamoyl)-thiophene-2-carbonyl]-amino}-3-[(thiophene-2-carbonyl)-amino]-propionic acid] | 7.51 | 7.80
CCc1cc(C(=O)NCc2cccc3[nH]ncc23)sc1C(=O)N[C@@H](CNC(=O)c1cccs1)C(=O)O [Example 62, (S)-2-({3-Ethyl-5-[(1H-indazol-4-ylmethyl)-carbamoyl]-thiophene-2-carbonyl}-amino)-3-[(thiophene-2-carbonyl)-amino]-propionic acid] | 7.60 | 7.68
O=C(NC[C@H](NC(=O)c1sc(C(=O)NCc2cccc(O)c2)cc1Br)C(=O)O)c1cccs1 [Example 63, (S)-2-{[3-Bromo-5-(3-hydroxy-benzylcarbamoyl)-thiophene-2-carbonyl]-amino}-3-[(thiophene-2-carbonyl)-amino]-propionic acid] | 7.60 | 8.15
Cc1cc(C(=O)NCc2ccc(F)c(O)c2)sc1C(=O)N[C@@H](CNC(=O)c1cccs1)C(=O)O [Example 64, (S)-2-{[5-(4-Fluoro-3-hydroxy-benzylcarbamoyl)-3-methyl-thiophene-2-carbonyl]-amino}-3-[(thiophene-2-carbonyl)-amino]-propionic acid] | < 5.52 | 7.96
